Consider one compound from paper PMC6148764, “Consensus design for improved thermostability of lipoxygenase from Anabaena sp. PCC 7120” (BMC Biotechnology, 2018).

As usually defined, the Km is the concentration of substrate that gives half-maximal velocity.

Assay in all cases: hydroperoxide formation at […] nm, spectrophotometer, initial rate
Common to all, as to type: biochemical
What all share (conditions): Tris-HCl pH 9.0, 30 °C

The target of experiment [1] is T1, Ana-rLOX (Nostoc sp. PCC 7120 = FACHB-418, UniProt Q8YK97, G578A).
T1 construct: gene all8020
T1 sequence (Q8YK97 319-773 G578A): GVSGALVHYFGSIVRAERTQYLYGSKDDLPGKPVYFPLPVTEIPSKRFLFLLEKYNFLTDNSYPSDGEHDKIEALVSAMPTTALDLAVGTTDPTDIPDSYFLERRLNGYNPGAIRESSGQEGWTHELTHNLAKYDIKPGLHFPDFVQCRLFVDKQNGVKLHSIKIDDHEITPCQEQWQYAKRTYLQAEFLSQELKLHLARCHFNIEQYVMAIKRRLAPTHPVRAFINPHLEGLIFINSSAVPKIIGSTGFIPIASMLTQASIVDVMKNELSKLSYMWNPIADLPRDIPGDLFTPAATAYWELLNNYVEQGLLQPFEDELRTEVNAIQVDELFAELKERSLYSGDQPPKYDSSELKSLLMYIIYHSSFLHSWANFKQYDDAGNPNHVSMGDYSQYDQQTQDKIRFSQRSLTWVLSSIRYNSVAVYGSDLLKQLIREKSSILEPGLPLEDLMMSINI

Experiment [2] has as its target T2, Ana-rLOX (Nostoc sp. PCC 7120 = FACHB-418, UniProt Q8YK97, S755T).
T2 construct: gene all8020

Experiment [3] addresses T3, Ana-rLOX (Nostoc sp. PCC 7120 = FACHB-418, UniProt Q8YK97, N448D).
T3 construct: gene all8020

For experiment [4], the target named is T4, Ana-rLOX (Nostoc sp. PCC 7120 = FACHB-418, UniProt Q8YK97, N448D/G578Q).
T4 construct: gene all8020
T4 sequence (Q8YK97 319-773 N448D/G578Q): as the sequence (Q8YK97 319-773 G578A) above, with N130D, A260Q counted along it

For experiment [5], the target named is T5, Ana-rLOX (Nostoc sp. PCC 7120 = FACHB-418, UniProt Q8YK97).
T5 construct: gene all8020
T5 sequence (Q8YK97 319-773 limits assumed): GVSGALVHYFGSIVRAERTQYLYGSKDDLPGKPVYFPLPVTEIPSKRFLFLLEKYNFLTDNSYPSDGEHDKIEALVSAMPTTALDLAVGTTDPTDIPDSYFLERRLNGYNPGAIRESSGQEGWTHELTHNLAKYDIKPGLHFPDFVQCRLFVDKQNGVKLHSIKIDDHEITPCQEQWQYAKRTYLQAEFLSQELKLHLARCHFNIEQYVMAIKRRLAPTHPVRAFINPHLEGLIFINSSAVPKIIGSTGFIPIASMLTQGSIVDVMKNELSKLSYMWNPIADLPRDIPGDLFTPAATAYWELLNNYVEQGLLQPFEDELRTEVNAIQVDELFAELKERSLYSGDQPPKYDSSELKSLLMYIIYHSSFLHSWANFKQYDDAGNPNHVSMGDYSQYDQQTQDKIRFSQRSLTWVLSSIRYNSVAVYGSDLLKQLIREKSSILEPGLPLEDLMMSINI

Experiment [6] concerns the target T6, Ana-rLOX (Nostoc sp. PCC 7120 = FACHB-418, UniProt Q8YK97, N448D/S755Y).
T6 construct: gene all8020

T2 sequence (Q8YK97 319-773 S755T): as the sequence (Q8YK97 319-773 G578A) above, with A260G, S437T counted along it
T6 sequence (Q8YK97 319-773 N448D/S755Y): as the sequence (Q8YK97 319-773 G578A) above, with N130D, A260G, S437Y counted along it
T3 sequence (Q8YK97 319-773 N448D): as the sequence (Q8YK97 319-773 G578A) above, with N130D, A260G counted along it

Turning to `CCCCC/C=C\C/C=C\CCCCCCCC(=O)O` [linoleic acid], the Km on Ana-rLOX [1] was 34 ± 2.3 µM; on Ana-rLOX [2], 56 ± 4.7 µM; on Ana-rLOX [3] it was 30 ± 2.6 µM; at Ana-rLOX [4] it was 13 ± 1 µM; on Ana-rLOX [5] it was 56 ± 4 µM; on Ana-rLOX [6], 15 ± 1.1 µM.
